Source: publication PMC4738272 (Scientific Reports, 2016)
Values joined by “and” are separate entries in the source; they are usually repeats but may differ in a detail not shown here. Equal values may be shown once. “Also recorded” adds a separate entry of the source.

Columns and labels:
Liver [1] = tested on: Liver; design: method as in Literature; details: general toxic effects reported in the literature; ref Literature; cited from earlier work
Human Skeletal Myofibers [2] = assay: MTT viability of skeletal muscle module in 4-organ system; details: 4-organ co-culture under flow, serum-free medium, 48 h drug treatment, day 7, vs control, DOX 5 μM, ATR 100 μM, VPA 2 mM, APAP 5 mM, AMAP 5 mM
From the text: (§1) The four organ in vitro systems were assembled, on day 0, by placing the corresponding surfaces cell side up in a specific chamber of the housing (liver coverslip into chamber 1, cardiac coverslips and cantilevers into chambers 2 and 4, muscle coverslips into chamber 5, and neuron coverslips into chamber 3 and they were then topped with the serum-free co-culture medium (1X Neurobasal Medium, 1X B27, 1X AB/AM, 1X Glutamax (all from Life Technologies)) before locking the system. Right after assembling, the medium was completely replaced with 4 mL of the co-culture defined serum-free medium and the systems placed on a rocking platform inside an incubator. Platforms were checked every day by inspecting for expected cell morphology inside the system and by replacing medium (1.2 mL total volume) from the two reservoirs (30% of the total volume was replaced) with fresh medium. Drug incubation was initiated on day 5 of the co-culture by addition of the drug through the reservoir closer to the liver chamber (no. 1), allowing a first contact of the drug with the liver. 20 μL of the drug stock solution (or vehicle) to achieve a working concentration in 4 mL of total volume in the platform was utilized. On day 6, after 24 hours of drug incubation, 6 μL of the drug stock solution (or vehicle) was added to the fresh medium exchange volume (1.2 mL). After 48 hour of drug incubation, on day 7, systems were disassembled to test organ functionality that same day. For mono-culture conditions, surfaces remained in a 12-well plated with 1 mL of the co-culture defined serum-free medium maintained by daily replacement of half volume.
(§2) Seven days after the initiation of the co-culture, viability of each organ chamber, except for neurons, was evaluated through an MTT assay. […] Cell viability was measured at 570 nm in a Synergy HT plate reader and KC4 software. The results were expressed as the percentage of cell survival relative to the control (untreated or incubated with vehicle). The neuronal fraction viability was evaluated through morphological analysis throughout the co-culture experiment as the final coverslips were used for patch-clamp electrophysiology. Phase images (10X) where obtained every day of the co-culture. Neuronal viability was evaluated by cell morphology integrity and by cell count from day 1 to day 14.

[3] = tested on: iPSc differentiated Cardiomyocytes; assay: Cardiac beating frequency from video recordings; format: cell-based, human; details: 4-organ co-culture under flow, 48 h drug treatment, day 7, vs control; for Cardiomyocyte beating rate (beat frequency), decrease: DOX 5 μM, AMAP 5 mM; for Cardiomyocyte beating rate (beat frequency), increase: ATR 100 μM, VPA 2 mM, APAP 5 mM
Method: Seven or fourteen days after the co-culture, cardiac beating frequency was quantified from video recordings of three different areas of each of the cMEA surfaces, where the cardiomyocytes culture where located. Surfaces were located in a 37 °C bath platform containing co-culture medium with 50 mM HEPES on the stage of a Zeiss Axioscope 2FS upright microscope. Beats were counted in a period of 10 s, and the average number of 3 values was obtained. Drug effect was plotted as percentage of change compared to the control conditions.

Cardiomyocytes = tested on: Cardiomyocytes; design: method as in Literature; details: general toxic effects reported in the literature; ref Literature; cited from earlier work
Neurons [4] = tested on: Neurons; design: method as in Literature; details: general toxic effects reported in the literature; ref Literature; cited from earlier work
[5] = cited from earlier work
neurons [6] = assay: Neuronal viability by morphological analysis and cell count in 4-organ system; details: 4-organ co-culture under flow, serum-free medium, 48 h drug treatment, day 7, vs control, DOX 5 μM, ATR 100 μM, VPA 2 mM, APAP 5 mM, AMAP 5 mM
From the text: as §1, §2

Human Skeletal Myofibers [7] = assay: Myotube stimulated contraction (binary: contracting or not); format: cell-based; details: 4-organ co-culture under flow, 48 h drug treatment, day 7, broad-field electrical stimulation, DOX 5 μM, ATR 100 μM, VPA 2 mM, APAP 5 mM, AMAP 5 mM
Method: Myotube contraction in coverslips was evaluated after the co-culture was finalized. Individual surfaces were evaluated as previously reported in the group. Drugs effects were quantify in a binary code mode, cells were or were not contracting.

Muscle = tested on: Muscle; design: method as in Literature; details: general toxic effects reported in the literature; ref Literature; cited from earlier work
skeletal muscle cells = assay: Bright-field imaging of skeletal muscle morphology in 4-organ system; format: cell-based, human; details: 4-organ co-culture under flow, DOX 5 μM, 48 h
From the text: Cell morphology and function were studied each day with an inverted bright-field microscope (Carl Zeiss) using a 10X objective. This working distance allowed the imaging of the cells in the specific surfaces inside the housing. Images of each fraction and systems were collected with an Axio Cam and AxioVision AC software to study morphological or functional changes in the co-culture chamber for each organ.

liver [8] = details: patients undergoing DOX treatment; cited from earlier work
HepG2/C3A [9] = assay: Urea quantification, liver fraction of 4-organ system; format: cell-based, human; details: 4-organ co-culture under flow, 48 h drug treatment, vs control, DOX 5 μM, ATR 100 μM, APAP 5 mM, AMAP 5 mM
[10] = tested on: iPSc differentiated Cardiomyocytes; assay: MTT viability of cardiac module in 4-organ system; details: 4-organ co-culture under flow, serum-free medium, 48 h drug treatment, day 7, vs control, DOX 5 μM, ATR 100 μM, VPA 2 mM, APAP 5 mM, AMAP 5 mM
From the text: as §1, §2

HepG2/C3A [11] = assay: Human Serum Albumin quantification (ELISA), liver fraction of 4-organ system; format: cell-based; details: 4-organ co-culture under flow, 48 h drug treatment, vs control, DOX 5 μM, ATR 100 μM, VPA 2 mM, APAP 5 mM, AMAP 5 mM
Method: Human Serum Albumin (HSA) production from the liver fraction was tracked throughout the co-culture, by measuring the HSA concentration in the supernatant of the culture as it represents liver protein anabolism. Samples were collected from the exchanged medium (1.2 mL) and stored at −20 °C until analysis. One freeze-thaw cycle occurred before samples were analyzed following manufacturers’ instructions provided in the ELISA Starter Accessory Kit (Bethyl Laboratories Inc, Cat #: E101). Samples were diluted as necessary in sample conjugate/diluent buffer to ensure readings measured within the range of the standard curve. The standard curve was prepared by serial dilutions of human reference serum in sample conjugate/diluent buffer (0–1600 ng/ml).
Final HSA concentrations were calculated in an excel file by first removing the average OD reading measured for blanks from average sample and standard OD readings. Concentrations of standard dilutions were plotted against average OD values measured in XY scatter plots. A standard curve was created by adding an order of 2 polynomial trendline to XY scatter plots and selecting the option to display the equation of the trendline, as well as the R^2 value, on each scatter plot (for ease of analysis HSA sigmoidal curves were split into 3 standard curves with HSA concentration ranges of 0–200 ng/ml, 200–800 ng/ml and […]). Quadratic equations were rearranged to make X (sample HSA concentration) the unknown variant. Y values (OD values) and a/b/c constants generated from trendline equations were inputted into rearranged quadratic equations per assay. HSA concentrations calculated were corrected accordingly for any differences in culture final volumes, sample dilutions during assays and cells number.

neuron = tested on: neuron; design: method as in PMID 17298386; details: 1uM DOX for 24 hours; read-out: Neuron viability drop; cited from earlier work
neurons [12] = assay: Neuron electrophysiology recording (patch clamp); format: cell-based, human; details: 4-organ co-culture under flow, 48 h drug treatment, day 7, vs control, DOX 5 μM, ATR 100 μM; for Neuronal ion currents and firing of stimulated action potentials / Neuronal repetitive and spontaneous firing ability / Neuronal electrophysiology, overall effect: APAP 5 mM; for Neuronal repetitive and spontaneous firing ability / Neuronal electrophysiology, overall effect: AMAP 5 mM; for Neuronal electrophysiology, overall effect: VPA 2 mM
From the text: Electrophysiological properties of neuron cultures where recorded on the last day of co-culture following a previously described method. Values of firing, repetitive firing, spontaneous firing, inward sodium current, outward potassium current, action potential peak voltage and the resting membrane potential, characterized the mature functionality of neurons in the in vitro system. Drug alterations of the neuronal electrophysiology are discussed in this manuscript.

HepG2/C3A [13] = assay: MTT viability of liver module in 4-organ system; format: cell-based, human; details: 4-organ co-culture under flow, serum-free medium, 48 h drug treatment, day 7, vs control, DOX 5 μM, ATR 100 μM, VPA 2 mM, APAP 5 mM, AMAP 5 mM
From the text: as §1, §2

CYP3A4 = assay: Cytochrome p450 3A4 enzymatic activity in liver mono-culture; format: cell-based, human; details: ATR 100 μM, 48 hour incubation, data not shown
Method: Enzymatic products from 1A1 were run with LDR, and separately, 3A4 were run with LDR containing esterases. Enzymatic activities were finally represented as D-Luciferin picomoles produce in 1 hour by 1 × 10^6 cells.

| SMILES | Drug effects on cell functionality, Liver, Literature (Liver [1]) | Drug effects on cell viability, Liver, Literature (Liver [1]) | Skeletal muscle viability, loss (Human Skeletal Myofibers [2]) | Drug effects on cell functionality, Cardiomyocytes, Literature (Cardiomyocytes) | Drug effects on cell viability, Cardiomyocytes, Literature (Cardiomyocytes) | Drug effects on cell functionality, Neurons, Literature (Neurons [4]) | Drug effects on cell viability, Neurons, Literature (Neurons [4]) | Neuronal cell viability, loss (cell loss by morphology/cell count) (neurons [6]) | Skeletal muscle loss of contractile ability (share of cultures in which contraction ceased) (Human Skeletal Myofibers [7]) | Drug effects on cell functionality, Muscle, Literature (Muscle) | Drug effects on cell viability, Muscle, Literature (Muscle) | Cardiomyocyte viability, loss [10] | HSA (albumin) production, increase (HepG2/C3A [11]) | Neuronal action potential peak voltage and resting membrane potential (DOX also peak ionic currents) (neurons [12]) | Neuronal electrophysiology, overall effect (neurons [12]) | also measured |
| --- | --- | --- | --- | --- | --- | --- | --- | --- | --- | --- | --- | --- | --- | --- | --- | --- |
| COc1cccc2c1C(=O)c1c(O)c3c(c(O)c1C2=O)C[C@@](O)(C(=O)CO)C[C@@H]3O[C@H]1C[C@H](N)[C@H](O)[C@H](C)O1 [Doxorubicin] | May be compromised | Toxicity reported | Toxicity not observed | Compromised | Toxicity reported | Neurologic disturbances ( ^**) | Neurologic disturbances ( ^**) | 33 ± 13% loss of cell viability | 60% loss of contractile ability | Toxicity at higher concentrations | Toxicity at higher concentrations | 65 ± 6% loss | HSA and Urea not affected( ^*) | not significantly different | Electrophysiology affected | Cardiomyocyte beating rate (beat frequency), decrease [3]: 47 ± 9% decrease in beating rate; Cardiomyocyte beating rate (beat frequency), decrease ([3]; listed as DOX): 47 ± 9%; Patient plasma concentrations typically detected ([5]; patients): 0.5 to 1 µM; Concentration in mitochondria relative to plasma levels ([5]; typically): 100 times; Neuronal cell viability, loss (cell loss by morphology/cell count) (neurons [6]; listed as DOX): 33 ± 18% and 33 ± 13%; Skeletal muscle loss of contractile ability (share of cultures in which contraction ceased) (Human Skeletal Myofibers [7]; listed as DOX): 60%; Muscle morphology (skeletal muscle cells): not affected; Patients undergoing treatment that show hepatotoxicity (liver [8]): 40%; Urea production, increase (HepG2/C3A [9]): HSA and Urea not affected( ^*); Urea production, increase (HepG2/C3A [9]; listed as DOX): No effects; Cardiomyocyte viability, loss ([10]; listed as DOX): 65 ± 6%; HSA (albumin) production, increase (HepG2/C3A [11]; listed as DOX): No effects; cytotoxicity (neuron): 25%; Neuronal ion currents and firing of stimulated action potentials (neurons [12]): no changes; Neuronal repetitive and spontaneous firing ability (neurons [12]; listed as DOX): not observed after treatment; Liver (hepatocyte) cell viability, loss (HepG2/C3A [13]): 49 ± 10% loss; Liver (hepatocyte) cell viability, loss (HepG2/C3A [13]; listed as DOX): 49 ± 10% |
| CC(C)c1c(C(=O)Nc2ccccc2)c(-c2ccccc2)c(-c2ccc(F)cc2)n1CC[C@@H](O)C[C@@H](O)CC(=O)O [Atorvastatin] | May be compromised | Toxicity reported | 30 ± 15% loss | Cardio-protective effect | Cardio-protective effect | Toxic at higher concentration( ^**) | Toxic at higher concentration( ^**) | 47 ± 14% loss of cell viability | 50% loss of contractile ability | Compromised | Toxicity reported | No toxic effect observed | not affected | changes | Electrophysiology affected | Skeletal muscle viability, loss (Human Skeletal Myofibers [2]; listed as ATR): 30 ± 15%; Cardiomyocyte beating rate (beat frequency), increase [3]: 43 ± 16% increase in beating rate; Cardiomyocyte beating rate (beat frequency), increase ([3]; listed as ATR): 43 ± 16%; Neuronal cell viability, loss (cell loss by morphology/cell count) (neurons [6]; listed as ATR): 47 ± 14% and 47 ± 16%; Skeletal muscle loss of contractile ability (share of cultures in which contraction ceased) (Human Skeletal Myofibers [7]; listed as ATR): 50%; CYP3A4 activity induction (CYP3A4): 12 fold; Cardiomyocyte viability, loss ([10]; listed as ATR): no reduction; HSA (albumin) production, increase (HepG2/C3A [11]; listed as ATR): no change; Neuronal repetitive and spontaneous firing ability (neurons [12]; listed as ATR): altered ability; also recorded: no repetitively firing cells were observed; Neuronal ion currents and firing of stimulated action potentials (neurons [12]; listed as ATR): typical ion currents and stimulated firing APs; also recorded: regular AP activity was recorded with good sodium and potassium currents |
